# According to article PMC11392244, “Characterization of a unique catechol-O-methyltransferase as a molecular drug target in parasitic filarial nematodes” (PLOS Neglected Tropical Diseases, 2024):
# Several values for one entry are separate records, joined by “and”; a condition that tells them apart may be missing. Equal entries are not always repeated. Where two headings read alike, the source gives them in different places.
# Legend:
# D. immitis microfilariae = assay: In vitro efficacy against live D. immitis microfilariae (motility, completely immotile %); format: cell-based, Dirofilaria immitis; settings: for Completely Immotile Microfilariae (%): single experiments
# mammalian cells = settings: read-out: Cytotoxicity IC50, ref Zhang et al., [30]; cited from earlier work
# mice = settings: ref [59]; cited from earlier work
# DiMT protein = format: biochemical, Dirofilaria immitis
# Gram-positive bacteria = test system: Gram-positive bacteria; parameters: method as in PMID 4622052; settings: in vitro and in vivo; ref [59]; cited from earlier work
smiles,measurement,setting,value
"CO[C@@H]1/C=C/O[C@@]2(C)Oc3c(C)c(O)c4c(c3C2=O)C(=N[C@@H]2CC[C@@H](O)O[C@H]2C)C=C(NC(=O)/C(C)=C\C(=O)[C@@H]2C[C@@H]2[C@H](O)[C@@H](C)[C@@H](O)[C@@H](C)[C@H](OC(C)=O)[C@@H]1C)C4=O [NSC177383, tolypomycin-Y]",Mean completely Immotile (%),"D. immitis microfilariae; 10 µM, 0 h",0%
same,Mean completely Immotile (%),"D. immitis microfilariae; 10 µM, 24 h",7.83%
same,Mean completely Immotile (%),"D. immitis microfilariae; 10 µM, 48 h",18.5%
same,Mean completely Immotile (%),"D. immitis microfilariae; 10 µM, 72 h",27.33%
same,Mean completely Immotile (%),"D. immitis microfilariae; 10 µM, 96 h",38%
same,Mean completely Immotile (%),"D. immitis microfilariae; 10 µM, 120 h",56.33%
same,Mean completely Immotile (%),"D. immitis microfilariae; 25 µM, 0 h",0%
same,Mean completely Immotile (%),"D. immitis microfilariae; 25 µM, 24 h",25.33%
same,Mean completely Immotile (%),"D. immitis microfilariae; 25 µM, 48 h",33%
same,Mean completely Immotile (%),"D. immitis microfilariae; 25 µM, 72 h",71.33%
same,Mean completely Immotile (%),"D. immitis microfilariae; 25 µM, 96 h",91.33%
same,Mean completely Immotile (%),"D. immitis microfilariae; 40 µM, 0 h",0%
same,Mean completely Immotile (%),"D. immitis microfilariae; 40 µM, 24 h",57.67%
same,Mean completely Immotile (%),"D. immitis microfilariae; 40 µM, 48 h",87.67%
same,Mean completely Immotile (%),"D. immitis microfilariae; 40 µM, 72 h",96.67%
same,Mean completely Immotile (%),"D. immitis microfilariae; 40 µM, 96 h",100%
same,Mean completely Immotile (%),"D. immitis microfilariae; 40 µM, 120 h",100%
same,Mean completely Immotile (%),"D. immitis microfilariae; 50 µM, 0 h",0%
same,Mean completely Immotile (%),"D. immitis microfilariae; 50 µM, 24 h",64.67%
same,Mean completely Immotile (%),"D. immitis microfilariae; 50 µM, 48 h",93.67%
same,Mean completely Immotile (%),"D. immitis microfilariae; 50 µM, 72 h",100%
same,Mean completely Immotile (%),"D. immitis microfilariae; 50 µM, 96 h",100%
same,Mean completely Immotile (%),"D. immitis microfilariae; 50 µM, 120 h",100%
same,Mean completely Immotile (%),"D. immitis microfilariae; 75 µM, 0 h",0%
same,Mean completely Immotile (%),"D. immitis microfilariae; 75 µM, 24 h",95.33%
same,Mean completely Immotile (%),"D. immitis microfilariae; 75 µM, 48 h",100%
same,Mean completely Immotile (%),"D. immitis microfilariae; 75 µM, 72 h",100%
same,Mean completely Immotile (%),"D. immitis microfilariae; 75 µM, 96 h",100%
same,Mean completely Immotile (%),"D. immitis microfilariae; 75 µM, 120 h",100%
same,Mean completely Immotile (%),"D. immitis microfilariae; 100 µM, 0 h",0%
same,Mean completely Immotile (%),"D. immitis microfilariae; 100 µM, 24 h",100%
same,Mean completely Immotile (%),"D. immitis microfilariae; 100 µM, 48 h",100%
same,Mean completely Immotile (%),"D. immitis microfilariae; 100 µM, 72 h",100%
same,Mean completely Immotile (%),"D. immitis microfilariae; 100 µM, 96 h",100%
same,Mean completely Immotile (%),"D. immitis microfilariae; 100 µM, 120 h",100%
same,EC50,"D. immitis microfilariae; 96 h post-treatment, read-out: Anti-parasitic EC50",11.7 µM and 11.6 µM
same,Completely Immotile Microfilariae (%),"D. immitis microfilariae; 10 µM, 0 h",0%
same,Completely Immotile Microfilariae (%),"D. immitis microfilariae; 10 µM, 24 h",5% and 8.5% and 10%
same,Completely Immotile Microfilariae (%),"D. immitis microfilariae; 10 µM, 48 h",15% and 19.5% and 21%
same,Completely Immotile Microfilariae (%),"D. immitis microfilariae; 10 µM, 72 h",25% and 27% and 30%
same,Completely Immotile Microfilariae (%),"D. immitis microfilariae; 10 µM, 96 h",35% and 38% and 41%
same,Completely Immotile Microfilariae (%),"D. immitis microfilariae; 10 µM, 120 h",50% and 61% and 58%
same,Completely Immotile Microfilariae (%),"D. immitis microfilariae; 25 µM, 0 h",0%
same,Completely Immotile Microfilariae (%),"D. immitis microfilariae; 25 µM, 24 h",25% and 28% and 23%
same,Completely Immotile Microfilariae (%),"D. immitis microfilariae; 25 µM, 48 h",30% and 37% and 32%
same,Completely Immotile Microfilariae (%),"D. immitis microfilariae; 25 µM, 72 h",70% and 76% and 68%
same,Completely Immotile Microfilariae (%),"D. immitis microfilariae; 25 µM, 96 h",90% and 95% and 89%
same,Completely Immotile Microfilariae (%),"D. immitis microfilariae; 25 µM, 120 h",100%
same,Completely Immotile Microfilariae (%),"D. immitis microfilariae; 40 µM, 0 h",0%
same,Completely Immotile Microfilariae (%),"D. immitis microfilariae; 40 µM, 24 h",50% and 65% and 58%
same,Completely Immotile Microfilariae (%),"D. immitis microfilariae; 40 µM, 48 h",85% and 90% and 88%
same,Completely Immotile Microfilariae (%),"D. immitis microfilariae; 40 µM, 72 h",95% and 98% and 97%
same,Completely Immotile Microfilariae (%),"D. immitis microfilariae; 40 µM, 96 h",100%
same,Completely Immotile Microfilariae (%),"D. immitis microfilariae; 40 µM, 120 h",100%
same,Completely Immotile Microfilariae (%),"D. immitis microfilariae; 50 µM, 0 h",0%
same,Completely Immotile Microfilariae (%),"D. immitis microfilariae; 50 µM, 24 h",60% and 78% and 56%
same,Completely Immotile Microfilariae (%),"D. immitis microfilariae; 50 µM, 48 h",90% and 95% and 96%
same,Completely Immotile Microfilariae (%),"D. immitis microfilariae; 50 µM, 72 h",100%
same,Completely Immotile Microfilariae (%),"D. immitis microfilariae; 50 µM, 96 h",100%
same,Completely Immotile Microfilariae (%),"D. immitis microfilariae; 50 µM, 120 h",100%
same,Completely Immotile Microfilariae (%),"D. immitis microfilariae; 75 µM, 0 h",0%
same,Completely Immotile Microfilariae (%),"D. immitis microfilariae; 75 µM, 24 h",95% and 93% and 98%
same,Completely Immotile Microfilariae (%),"D. immitis microfilariae; 75 µM, 48 h",100%
same,Completely Immotile Microfilariae (%),"D. immitis microfilariae; 75 µM, 72 h",100%
same,Completely Immotile Microfilariae (%),"D. immitis microfilariae; 75 µM, 96 h",100%
same,Completely Immotile Microfilariae (%),"D. immitis microfilariae; 75 µM, 120 h",100%
same,Completely Immotile Microfilariae (%),"D. immitis microfilariae; 100 µM, 0 h",0%
same,Completely Immotile Microfilariae (%),"D. immitis microfilariae; 100 µM, 24 h",100%
same,Completely Immotile Microfilariae (%),"D. immitis microfilariae; 100 µM, 48 h",100%
same,Completely Immotile Microfilariae (%),"D. immitis microfilariae; 100 µM, 72 h",100%
same,Completely Immotile Microfilariae (%),"D. immitis microfilariae; 100 µM, 96 h",100%
same,Completely Immotile Microfilariae (%),"D. immitis microfilariae; 100 µM, 120 h",100%
same,effect on microfilariae,D. immitis microfilariae; up to 120 h of culture,killing effect
same,IC50,mammalian cells,85.5 µM
same,toxicity in mice,mice,low toxicity
same,Mean Percent Inhibition,DiMT protein; 40 µM,17.3% and 18.1% and 14.9%
same,"Mean Percent Inhibition, Average",DiMT protein; 40 µM,16.8%
same,Mean Percent Inhibition,DiMT protein; 80 µM,30.5% and 30.7% and 34.4%
same,"Mean Percent Inhibition, Average",DiMT protein; 80 µM,31.9%
same,Mean Percent Inhibition,DiMT protein; 120 µM,45.9% and 41.2% and 40.2%
same,"Mean Percent Inhibition, Average",DiMT protein; 120 µM,42.4%
same,Mean Percent Inhibition,DiMT protein; 140 µM,50.6% and 45.4% and 42.2%
same,"Mean Percent Inhibition, Average",DiMT protein; 140 µM,46.1%
same,Mean Percent Inhibition,DiMT protein; 180 µM,63.6% and 62.4% and 64.2%
same,"Mean Percent Inhibition, Average",DiMT protein; 180 µM,63.4%
same,IC50,DiMT protein; read-out: IC 50 (μM ± SEM),140 ± 2.2 µM
same,antimicrobial activities against Gram-positive bacteria,Gram-positive bacteria,strong antimicrobial activities
